Measurements: the NIST ThermoML archive (doi:10.1021/je034144f)
Numbers after ± are expanded uncertainties.

Conditions: Liquid, Ebulliometric method (Recirculating still)

CC#N [acetonitrile]
Conditions	vapor or sublimation pressure [kPa]
277.92 K	4.323 ± 0.011
278.62 K	4.49 ± 0.01
281.57 K	5.247 ± 0.012
285.38 K	6.385 ± 0.012
287.67 K	7.165 ± 0.013
290.65 K	8.296 ± 0.013
292.75 K	9.182 ± 0.014
295.78 K	10.6 ± 0.015
300.82 K	13.37 ± 0.016
303.81 K	15.27 ± 0.018
309.64 K	19.64 ± 0.021
315.43 K	24.97 ± 0.024
321.12 K	31.31 ± 0.027
325.02 K	36.39 ± 0.032
331.27 K	45.91 ± 0.036
336.41 K	55.17 ± 0.042
341.18 K	65.07 ± 0.048
345.57 K	75.44 ± 0.05
349.33 K	85.31 ± 0.059
352.88 K	95.59 ± 0.063
354.55 K	100.75 ± 0.068
354.67 K	101.12 ± 0.07
357.56 K	110.61 ± 0.073
360.94 K	122.63 ± 0.079
361.61 K	125.13 ± 0.079
368.97 K	155.33 ± 0.089
371.74 K	168.12 ± 0.099
373.17 K	175.04 ± 0.11
378.81 K	204.59 ± 0.12
384.11 K	235.79 ± 0.14
394.29 K	306.28 ± 0.16
405.24 K	399.5 ± 0.2
415.21 K	502.67 ± 0.24
423.68 K	605.6 ± 0.28
431.12 K	708.99 ± 0.31
437.3 K	804.86 ± 0.35
443.5 K	910.82 ± 0.38
449.6 K	1025.5 ± 0.42
455.74 K	1152 ± 0.46
461.87 K	1290.2 ± 0.51
468.37 K	1450.3 ± 0.55
474.05 K	1602.6 ± 0.6
479.15 K	1749.8 ± 0.65
484.77 K	1923.9 ± 0.7
490.37 K	2110.8 ± 0.76
495.75 K	2303.5 ± 0.81
501.48 K	2523.7 ± 0.88
506.92 K	2748 ± 0.94
512.61 K	2999.2 ± 1
518.01 K	3254.1 ± 1.1
523.15 K	3512.9 ± 1.1
527.79 K	3760.4 ± 1.2
532.08 K	4001.5 ± 1.3
535.03 K	4174.6 ± 1.3
